Bridge positions count the residues as written; N and C are the ends. Ends that are not written are not given here.
What was measured:
breast cancer cells = assay: Trypan blue cell death assay, breast cancer cells; type: cell-based; details: 100 ug/ml
Protocol: (§1) The hCG preparations, fractions of the early pregnancy urine and hCG APL™ SUPERDEX™ 200 fractionations (described herein), and certain β-hCG peptides were tested on prostate, lung, breast, and kidney cancer cells in vitro, and on prostate tumors in nude mice. […] The preparations fractions and peptides were also assayed using a clonogenic assay in which cells were seeded in methylcellulose in the presence or absence of test substance and then colonies were counted after a certain period of time. Cells were also examined for apoptosis by confocal microscopy.
The effects of hCG preparations, hCG fractions and β-hCG peptides were also tested in breast cancer cells in vitro. Breast cancer cells were incubated with the hCG preparations, hCG fractions and β-hCG peptides in both the trypan blue viability assay and the clonogenic assay.

lung cancer cells [1] = assay: Clonogenic assay, lung cancer cells; type: cell-based; details: compared to PBS alone
Protocol: as §1

lung cancer cells [2] = assay: Trypan blue cell death assay, lung cancer cells; type: cell-based
Protocol: as §1
The effects of hCG preparations, hCG fractions and β-hCG peptides were tested in lung cancer cells in vitro. Lung cancer cells were incubated with the hCG preparations, hCG fractions and β-hCG peptides in both the trypan blue viability assay and the clonogenic assay.

HIV-1 transgenic mice = assay: Survival, growth and weight of HIV-1 transgenic mouse pups; type: in vivo
Protocol: The HIV-1 transgenic mice used for this study contain 7.4 kb of foreign DNA, including 5.1 kb of the HIV-1 proviral genome deleted in the gag and pol genes and 2.3 kb of vector (Dickie et al., 1991, Virology 185:109-119). […] In addition, these mice develop severe hyperkeratotic skin lesions with marked expression of gp 120 and nef genes (Kopp et al., 1993, AIDS Res. Hum. Retroviruses 9:267-275; Vasli et al., 1994, AIDS Res. Hum. Retroviruses 10:1241-1250).
Finally, certain fractions were tested for their ability to increase survival, promote weight gain and reduce HIV-1 gene expression in HIV-1 transgenic mice as described herein.
HIV-I transgenic pups administered hCG and hCG-related preparations for the first 5 days after birth through the mothers milk were monitored for survival at 10 days after birth.

[3] = system: Kaposi's Sarcoma induced in mice; assay: Kaposi's Sarcoma tumors induced in mice by KS Y-1 cells; type: in vivo
Protocol: The effects of the peptides on KS tumor cells were also evaluated in vivo in the KS mouse model. To induce KS tumors in the mice, 1×10^6/ml KS Y-1 cells in 50 μl PBS or saline were injected subcutaneously into immunodeficient mice (beige-XID-BNX mice). […] Methods for detection of apoptosis (from tissue biopsies) were used, as described in Lunardi-Iskandar et al.(1995, Nature 375:64-68). Briefly, the samples were stained in situ for the presence of cells with DNA fragmentation. Tissue slides from formalin-fixed tumors were treated with terminal deoxynucleotide transferase for extension of DNA ends (hydroxyl 3′) and incorporation of digoxigenin-11-dUTP according to the manufacturer's instructions (Oncor, Gaithersburg, Md.). Anti-digoxigenin antibody conjugated with the enzyme peroxidase allowed detection of apoptotic cells, which stain brown, whereas viable cells stain blue.
Certain fractions were tested for activity in reducing Kaposi's Sarcoma lesions in the Kaposi's Sarcoma mouse model as described herein. In this assay, starting one week after injection of the KS Y-1 cells to induce Kaposi's sarcoma formation, the mice were injected subcutaneously with 100 IU hCG. […] After one week of the week of treatment with the hCG fractions, the KS lesions were examined for cell apoptosis and regression as described herein.
Certain fractions of the APL™ hCG and early pregnancy urine were assayed for their ability to elicit apoptosis in Kaposi's Sarcoma lesions induced by injection of KS Y-1 cells in mice (n=3 mice for each treatment). The mice were administered 100 μl subcutaneously of the particular fraction each day for one week.

4. Circ 44-57: β-hCG 44-57 with cysteine substituted at position 44, circularized via disulfide bond (SEQ ID NO:26) (CLQGVLPALPQVVC; disulfide 1-14 (inferred))
% dead cells (breast cancer cells): 42%
inhibition of HIV-1 infection/replication in vitro (in words) (HIV-1): inhibit HIV-1 replication in vitro
HIV in vitro Inhibition (HIV-1; inhibition of HIV-1 replication in vitro (HIV-1 strains and HIV-1 primary isolates)): +++ (“+++” represents greater than 70% effect)
colony formation (lung cancer cells [1]): inhibited colony formation
% dead cells (lung cancer cells [2]; 200 μg/ml): 42%
% dead cells (lung cancer cells [2]; 300 μg/ml): 59%
weight gain / growth retardation and cachexia (HIV-1 transgenic mice; HIV-1 transgenic pups): higher weight gain than untreated mice
survival at 10 days after birth (HIV-1 transgenic mice; administered first 5 days after birth through mothers milk): promote survival
KS in vivo ([3]; inhibition of Kaposi's Sarcoma induced in mice): +++ (“+++” represents greater than 70% effect)
effect on KS tumors in mice (in words) ([3]; mouse, in vivo): extensive cell death

From patent US6699834B1, “Method for treating cancer” (University of Maryland Biotechnology Institute, priority 1997, dated 2004)
